Test results reported in patent publication US9975900B2, “Substituted imidazo[1,2-α]pyrazines for treating spinal muscular atrophy” (Hoffmann-La Roche Inc., priority 2014, dated 2018).
Where a name gives a salt, the structure may show the parent alone.

Legend:
[1] = tested on: SMN protein in SMA patient fibroblast cells (GM03813); assay: SMN protein assay (HTRF) in cultured cells; format: cell-based; conditions: Homo sapiens, SMA Type 1 patient fibroblasts, 48 hours; for EC (1.5-fold): 7-point concentration curve, concentration giving 1.5 times SMN protein vs vehicle, read-out: EC1.5x SMN protein (EC1.5x concentration for SMN protein expression); for maximal fold induction: fold increase relative to vehicle control, read-out: Max. fold increase of SMN protein
Description: The SMN HTRF (homogeneous time resolved fluorescence) assay is used to quantify the level of SMN protein in SMA patient fibroblast cells treated with test compounds. Materials used and respective sources are listed below in Table 4.
Cells are thawed and cultured in DMEM-10% FBS for 72 hours. Cells are trypsinized, counted and re-suspended to a concentration of 25,000 cells/mL in DMEM-10% FBS. The cell suspensions are plated at 5,000 cells per well in a 96 well microtiter plate and incubated for 3 to 5 hours. Test compounds are serially diluted 3.16-fold in 100% DMSO to generate a 7-point concentration curve. 1 μL of test compound solution is transferred to cell-containing wells and cells are incubated for 48 hours in a cell culture incubator (37° C., 5% CO2, 100% relative humidity). Triplicate samples are set up for each test compound concentration. After 48 hours, the supernatant is removed from the wells and 25 μL of the RIPA lysis buffer, containing protease inhibitors, is added to the wells and incubated with shaking at room temperature for 1 hour. 25 μL of the diluent is added and then 35 μL of the resulting lysate is transferred to a 384-well plate, where each well contains 5 μL of the antibody solution (1:100 dilution of anti-SMN d2 and anti-SMN cryptate in SMN reconstitution buffer). The plate is centrifuged for 1 minute to bring the solution to the bottom of the wells, then incubated overnight at room temperature. Fluorescence for each well of the plate at 665 nm and 620 nm is measured on an EnVision multilabel plate reader (Perkin-Elmer).
The normalized fluorescence signal is calculated for each sample, Blank and vehicle control well by dividing the signal at 665 nm by the signal at 620 nm. Normalizing the signal accounts for possible fluorescence quenching due to the matrix effect of the lysate. The ΔF value (a measurement of SMN protein abundance as a percent value) for each sample well is calculated by subtracting the normalized average fluorescence for the Blank control wells from the normalized fluorescence for each sample well, then dividing this difference by the normalized average fluorescence for the Blank control wells and multiplying the resulting value by 100. The ΔF value for each sample well represents the SMN protein abundance from test compound-treated samples. The ΔF value for each sample well is divided by the ΔF value for the vehicle control wells to calculate the fold increase in SMN protein abundance relative to the vehicle control. Table 5 provides EC1.5× concentrations for SMN protein expression that was obtained from the 7-point concentration data generated according to the above procedure for particular compounds of the present invention.
Table 6 provides the maximum fold increase of SMN protein that was obtained from the 7-point concentration data generated according to the above procedure for particular compounds of the present invention

[2] = tested on: full length SMN2 minigene mRNA (HEK293H cells stably transfected with the SMN2-A minigene construct); assay: RT-qPCR assay for SMN2 minigene pre-mRNA splicing in cultured cells; format: cell-based; conditions: Homo sapiens, HEK293-H, 24 hours, 7-point concentration curve, concentration giving 1.5-fold FL SMN2mini mRNA vs vehicle, read-out: EC1.5x minigene (EC1.5x concentration for production of full length SMN2 minigene mRNA)
Description: The reverse transcription-quantitative PCR-based (RT-qPCR) assay is used to quantify the level of the full length SMN2 minigene (referred to herein by the term “FL SMN2mini”) mRNA containing SMN2 exon 7 in a HEK293H cell line stably transfected with said minigene and treated with a test compound. Materials used and respective sources are listed below in Table 1.
The SMN2-A minigene construct was prepared as described in International Patent Application WO2009/151546A1 page 145 paragraph [00400] to page 147 paragraph [00412] (incl. FIG. 1 and FIG. 3 therein).
HEK293H cells stably transfected with the SMN2-A minigene construct (10,000 cells/well) are seeded in 200 μL of cell culture medium (DMEM plus 10% FBS, with 200 μg/mL hygromycin) in 96-well flat-bottom plates and the plate is immediately swirled to ensure proper dispersal of cells and the formation of an even monolayer of cells. Cells are allowed to attach for 6 hours. Test compounds are serially diluted 3.16-fold in 100% DMSO to generate a 7-point concentration curve. A solution of test compound (1 μL, 200× in DMSO) is added to each cell-containing well and the plate is incubated for 24 hours in a cell culture incubator (37° C., 5% CO2, 100% relative humidity). 2 replicates are prepared for each test compound concentration. The cells are then lysed in the Cells-To-Ct lysis buffer and the lysate is stored at −80° C.
Full length SMN2-A minigene and GAPDH mRNA are quantified using the primers and probes referenced in Table 2. Primer SMN Forward A (SEQ ID NO.1) hybridizes to a nucleotide sequence in exon 7 (nucleotide 22 to nucleotide 40), primer SMN Reverse A (SEQ ID NO.2) hybridizes to a nucleotide sequence in the coding sequence of Firefly luciferase, SMN Probe A (SEQ ID NO.3) hybridizes to a nucleotide sequence in exon 7 (nucleotide 50 to nucleotide 54) and exon 8 (nucleotide 1 to nucleotide 21). The combination of these three oligonucleotides detects only SMN1 or SMN2 minigenes (RT-qPCR) and will not detect endogenous SMN1 or SMN2 genes.
The SMN forward and reverse primers are used at final concentrations of 0.4 μM. The SMN probe is used at a final concentration of 0.15 μM. The GAPDH primers are used at final concentrations of 0.2 μM and the probe at 0.15 μM.
The SMN2-minigene GAPDH mix (15 μL total volume) is prepared by combining 7.5 of 2×RT-PCR buffer, 0.4 μL of 25×RT-PCR enzyme mix, 0.75 μL of 20× GAPDH primer-probe mix, […] of water, 2 μL of 10-fold diluted cell lysate, 0.06 μL of 100 μM SMN forward primer, 0.06 μL of 100 μM SMN reverse primer, and 0.225 μL of 100 μM SMN probe.
PCR is carried out at the following temperatures for the indicated time: Step 1: 48° C. (15 min); Step 2: 95° C. (10 min); Step 3: 95° C. (15 sec); Step 4: 60° C. (1 min); then repeat Steps 3 and 4 for a total of 40 cycles.
Each reaction mixture contains both SMN2-A minigene and GAPDH primers/probe sets (multiplex design), allowing simultaneous measurement of the levels of two transcripts.
The increase in the abundance of the FL SMN2mini mRNA relative to that in cells treated with vehicle control is determined from real-time PCR data using a modified ΔΔCt method (as described in Livak and Schmittgen, Methods, 2001, 25:402-8). The amplification efficiency E is calculated from the slope of the amplification curve for FL SMN2mini and GAPDH individually. The abundance of FL SMN2mini and GAPDH mRNA are then calculated as (1+E)^−Ct, where Ct is the threshold value for each amplicon. The abundance of FL SMN2mini mRNA is normalized to GAPDH mRNA abundance. The normalized FL SMN2mini mRNA abundance from test compound-treated samples is then divided by normalized FL SMN2mini mRNA abundance from vehicle-treated cells to determine the level of FL SMN2mini mRNA relative to vehicle control. […]

SMILES	EC (1.5-fold) [1] [µM]	maximal fold induction [1]	EC (1.5-fold) [2] [µM]
Cc1cn2cc(NC(=O)c3ccc(N4CCNCC4)cc3F)ncc2n1 [Example 1, 2-fluoro-N-(2-methylimidazo[1,2-a]pyrazin-6-yl)-4-piperazin-1-ylbenzamide hydrochloride]	0.087	1.9	0.0374
Cc1cn2cc(NC(=O)c3ccc(N4CCNCC4)cc3)ncc2n1 [Example 2, N-(2-methylimidazo[1,2-a]pyrazin-6-yl)-4-piperazin-1-ylbenzamide hydrochloride]	2.25	1.74	1.05
CCOc1cc(N2CCN3CCC[C@H]3C2)ccc1C(=O)Nc1cn2cc(C)nc2cn1 [Example 3, 4-[(8aS)-3,4,6,7,8,8a-hexahydro-1H-pyrrolo[1,2-a]pyrazin-2-yl]-2-ethoxy-N-(2-methylimidazo[1,2-a]pyrazin-6-yl)benzamide]	0.409	1.83	0.102
CCOc1cc(N2CCN[C@@H](C)C2)ccc1C(=O)Nc1cn2cc(C)nc2cn1 [Example 4, 2-ethoxy-N-(2-methylimidazo[1,2-a]pyrazin-6-yl)-4-[(3S)-3-methylpiperazin-1-yl]benzamide]	0.122	1.92	0.0263
CCOc1cc(N2CCN[C@H](C)C2)ccc1C(=O)Nc1cn2cc(C)nc2cn1 [Example 5, 2-ethoxy-N-(2-methylimidazo[1,2-a]pyrazin-6-yl)-4-[(3R)-3-methylpiperazin-1-yl]benzamide]	0.185	1.9	0.041
CCOc1cc(N2CCN3CCC[C@@H]3C2)ccc1C(=O)Nc1cn2cc(C)nc2cn1 [Example 6, 4-[(8aR)-3,4,6,7,8,8a-hexahydro-1H-pyrrolo[1,2-a]pyrazin-2-yl]-2-ethoxy-N-(2-methylimidazo[1,2-a]pyrazin-6-yl)benzamide]	0.428	1.71	0.101
Cc1cn2cc(NC(=O)c3ccc(N4CCN5CCC[C@@H]5C4)cc3F)ncc2n1 [Example 7, 4-[(8aR)-3,4,6,7,8,8a-hexahydro-1H-pyrrolo[1,2-a]pyrazin-2-yl]-2-fluoro-N-(2-methylimidazo[1,2-a]pyrazin-6-yl)benzamide]	0.872	1.64	0.0484
Cc1cn2cc(NC(=O)c3ccc(N4CCN5CCC[C@H]5C4)cc3F)ncc2n1 [Example 8, 4-[(8aS)-3,4,6,7,8,8a-hexahydro-1H-pyrrolo[1,2-a]pyrazin-2-yl]-2-fluoro-N-(2-methylimidazo[1,2-a]pyrazin-6-yl)benzamide]	0.351	1.77	0.0407
CCOc1cc(N2CCCNCC2)ccc1C(=O)Nc1cn2cc(C)nc2cn1 [Example 9, 4-(1,4-diazepan-1-yl)-2-ethoxy-N-(2-methylimidazo[1,2-a]pyrazin-6-yl)benzamide]	0.345	1.73	0.098
CCOc1cc(N2C[C@@H](C)N[C@@H](C)C2)ccc1C(=O)Nc1cn2cc(C)nc2cn1 [Example 10, 4-[(3S,5R)-3,5-dimethylpiperazin-1-yl]-2-ethoxy-N-(2-methylimidazo[1,2-a]pyrazin-6-yl)benzamide]	0.13	1.91	0.0383
Cc1cn2cc(NC(=O)c3ccc(N4CCN[C@H](C)C4)cc3F)nc(C)c2n1 [Example 11, N-(2,8-dimethylimidazo[1,2-a]pyrazin-6-yl)-2-fluoro-4-[(3R)-3-methylpiperazin-1-yl]benzamide]	0.0522	1.8	0.0164
CCOc1cc(N2CCN3CCC[C@H]3C2)ccc1C(=O)Nc1cn2cc(C)nc2c(C)n1 [Example 12, 4-[(8aS)-3,4,6,7,8,8a-hexahydro-1H-pyrrolo[1,2-a]pyrazin-2-yl]-N-(2,8-dimethylimidazo[1,2-a]pyrazin-6-yl)-2-ethoxybenzamide]	1.73	1.56	0.145
Cc1cn2cc(NC(=O)c3ccc(N4CCN5CCC[C@H]5C4)cc3F)nc(C)c2n1 [Example 13, 4-[(8aS)-3,4,6,7,8,8a-hexahydro-1H-pyrrolo[1,2-a]pyrazin-2-yl]-N-(2,8-dimethylimidazo[1,2-a]pyrazin-6-yl)-2-fluorobenzamide]	0.109	1.66	0.0262
Cc1cn2cc(NC(=O)c3c(F)cc(N4CCN[C@H](C)C4)cc3F)nc(C)c2n1 [Example 14, N-(2,8-dimethylimidazo[1,2-a]pyrazin-6-yl)-2,6-difluoro-4-[(3R)-3-methylpiperazin-1-yl]benzamide]	0.124	1.61	0.0097
CCOc1cc(N2CCN[C@H](C)C2)ccc1C(=O)Nc1cn2cc(C)nc2c(C)n1 [Example 15, N-(2,8-dimethylimidazo[1,2-a]pyrazin-6-yl)-2-ethoxy-4-[(3R)-3-methylpiperazin-1-yl]benzamide]	0.303	1.72	0.038
